Experiments:
[1] = test system: human SNU638 gastric cancer cell line; assay: MTT survival of SNU638 cancer cells after treatment with the compound of formula I; type: cell-based; settings: for The survival rate of cancer cells: MTT, relative to DMSO control
Method: (§1) In this Example, the effect of the compound of formula I as an anticancer agent was evaluated in vitro using human NCI-H460 and SNU638 cancer cell lines.
(§2) The inventor purchased the compound of formula I from ChemBridge Corporation (San Diego, Calif.). Human NCI-H460 lung cancer cell line was obtained from ATCC (American Type Culture Collection), while human SNU638 gastric cancer cell line from KCLB (Korean Cell Line Bank).
(§3) Under […] at 37° C., the human NCI-H460 and SNU638 cancer cell lines were incubated for 4 days in RPMI1640 culture medium (GIBCO/BRL, Grand Island, N.Y.) containing 10% calf fetus serum, penicillin 100 units/ml, and streptomycin 100 μg/ml.
In the case of the SNU638 cell line, the compound of formula I was dissolved in DMSO in order to make its concentration 1 ng/ml, 10 ng/ml, 100 ng/ml, 1,000 ng/ml and 10,000 ng/ml, respectively. During incubation, the SNU638 cells were treated with each concentration of the compound of formula I, respectively.
(§4) Then, any surviving cancer cells were dyed with MTT [3-(4,5-dimethylthiazol-2-yl)-2,5-diphenyltetrazolium bromide] and quantified at 540 nm with a microplate reader.
(§5) Following Tables 1 and 2, and FIGS. 1 and 2, respectively show the survival rate of cancer cells, based on relative absorbance rate in reference to control (i.e. cancer cells treated with DMSO only). […] When treated with 1,000 ng/ml of the compound of formula I, about 80% (in the case of the NCI-H460 cell line) and 94% (in the case of the SNU638 cell line) of cancer cells were killed.

[2] = test system: human NCI-H460 lung cancer cell line; assay: Colony formation of NCI-H460 cells, compound followed by γ-irradiation; type: cell-based; settings: for The survival rate of cancer cells (combination therapy): colony formation vs un-irradiated compound-treated cells
Method: (§6) Using the same method as described in Example 1, human A549 and NCI-H460 lung cancer cell lines (obtained from ATCC) were incubated in RPMI1640 culture medium.
(§7) Then, cancer cells were collected and placed into 60 mm (in diameter) petri dishes, 300 cells per petri dish. After the cancer cells were incubated in water-containing CO2 incubator at 37° C. for 24 hours, 1 ng/ml and 0.1 ng/ml of the compound of formula I dissolved in DMSO were treated to human NCI-H460 and A549 cells, respectively. Four (4) hours later, the cancer cells were irradiated with a different amount of γ-rays using ^137Cs γ-rays source (Atomic Energy of Canada, Ltd., Canada). After cultivated for 10 days, the colonies were dyed with 1% methylene blue. Colonies having diameters of 200 μm or more were counted using Colony Counter (Imaging Products, Chantilly, Va.).
(§8) The results regarding colony formation are shown in the following Tables 3 and 4, and FIGS. 3 and 4.

[3] = test system: human A549 lung cancer cell line; assay: Colony formation of A549 cells, compound followed by γ-irradiation; type: cell-based; settings: for The survival rate of cancer cells (combination therapy): colony formation vs un-irradiated compound-treated cells
Method: as §6, §7, §8

[4] = test system: human NCI-H460 lung cancer cell line; assay: MTT survival of NCI-H460 cancer cells after treatment with the compound of formula I; type: cell-based; settings: for The survival rate of cancer cells: MTT, relative to DMSO control
Method: as §1, §2, §3
In the case of the NCI-H460 cell line, the compound of formula I was dissolved in DMSO (dimethyl sulfoxide) in order to make its concentration 0.1 ng/ml, 1 ng/ml, 10 ng/ml, 100 ng/ml, 1,000 ng/ml and 10,000 ng/ml, respectively. During incubation, the NCI-H460 cells were treated with each concentration of the compound of formula I, respectively.
as §4, §5

[5] = test system: NCI-H460 cells transplanted into mice; assay: Tumor volume of NCI-H460 cells transplanted into mice; type: in vivo
Method: Six (6) week old mice of BALB/cAnNCrj-nu/nu strain, which were obtained from Chales River Japan Inc. (Japan), were subcutaneously injected lung cancer cells (NCI-H460 cell line, 5×10^6 cells) to develop tumors.
Mice were selected whose tumor volume reached 120 mm^3, and subdivided into 4 groups each having 5 mice: Group 1 (control, treated with DMSO); Group 2 (treated only with 10 mg/kg of the compound of formula I); Group 3 (treated only with 5 Gy of irradiation); and Group 4 (treated with 10 mg/kg of the compound of formula I and 5 Gy of irradiation).
Five (5) times with 5 day intervals between each time, DMSO or the compound of formula I was subcutaneously injected to the mice of Groups 1, 2 and 4, and γ-rays were irradiated to the mice of Groups 3 and 4.
The compound of formula I was dissolved in DMSO to make its concentration 5 mg/ml. 40 μl of DMSO and the compound of formula I each were administered to Groups 1, 2 and 4, respectively. The mice of Group 4 were subcutaneously injected with the compound of formula I, and 4 hours later followed by irradiation. The change of tumor volume in each Group was observed 11 times with 3 to 5 days of interval for 42 days.

Compound: CSC(=S)N/N=C(\c1ccccc1)c1ccccn1 [compound of formula I, N′-(phenyl-pyridin-2-yl-methylene)-hydrazine carbodithioic acid methyl ester]
- cancer cells killed ([1]; 1 ng/ml): ~35%
- The survival rate of cancer cells ([1]; 1 ng/ml): 64.46%
- The survival rate of cancer cells ([1]; 10 ng/ml): 53.22%
- The survival rate of cancer cells ([1]; 100 ng/ml): 46.41%
- cancer cells killed ([1]; 1,000 ng/ml): ~94%
- The survival rate of cancer cells ([1]; 1,000 ng/ml): 5.71%
- The survival rate of cancer cells ([1]; 10,000 ng/ml): 3.87%
- The survival rate of cancer cells (combination therapy) ([2]; 1 ng/ml compound then 1 Gy): 37.5%
- The survival rate of cancer cells (combination therapy) ([2]; 1 ng/ml compound then 3 Gy): 9%
- The survival rate of cancer cells (combination therapy) ([2]; 1 ng/ml compound then 5 Gy): 1%
- The survival rate of cancer cells (combination therapy) ([2]; 1 ng/ml compound then 7 Gy): 0.01%
- cancer cells killed ([2]; 1 ng/ml followed by 1 Gy, in comparison with 1 ng/ml and no irradiation): 62.5%
- enhanced anticancer effect in comparison with 1 Gy of irradiation ([2]; 1 ng/ml in combination with 1 Gy): 27.5%
- radio-enhanced cancer treatment effect ([2]; 1 Gy or more irradiated, 1 ng/ml): significantly effective
- The survival rate of cancer cells (combination therapy) ([3]; 0.1 ng/ml compound then 1 Gy): 53%
- The survival rate of cancer cells (combination therapy) ([3]; 0.1 ng/ml compound then 3 Gy): 10%
- The survival rate of cancer cells (combination therapy) ([3]; 0.1 ng/ml compound then 5 Gy): 2%
- The survival rate of cancer cells (combination therapy) ([3]; 0.1 ng/ml compound then 7 Gy): 1%
- cancer cells killed ([3]; 0.1 ng/ml followed by 1 Gy, in comparison with 0.1 ng/ml and no irradiation): 47%
- increased anticancer effect in comparison with 1 Gy of irradiation only ([3]; 0.1 ng/ml in combination with 1 Gy): 32%
- radio-enhanced cancer treatment effect ([3]; 1 Gy or more irradiated, 0.1 ng/ml): significantly effective
- The survival rate of cancer cells ([4]; 0.1 ng/ml): 90.2%
- cancer cells killed ([4]; 1 ng/ml): about 12%
- The survival rate of cancer cells ([4]; 1 ng/ml): 87.7%
- The survival rate of cancer cells ([4]; 10 ng/ml): 51.3%
- The survival rate of cancer cells ([4]; 100 ng/ml): 36.6%
- cancer cells killed ([4]; 1,000 ng/ml): about 80%
- The survival rate of cancer cells ([4]; 1,000 ng/ml): 20%
- The survival rate of cancer cells ([4]; 10,000 ng/ml): 2%
- tumor volume ([5]; Combination: 10 mg/kg s.c. + 5 Gy irradiation, 10 days): 133 mm^3
- tumor volume ([5]; Combination: 10 mg/kg s.c. + 5 Gy irradiation, 13 days): 268 mm^3
- tumor volume ([5]; Combination: 10 mg/kg s.c. + 5 Gy irradiation, 18 days): 379 mm^3
- tumor volume ([5]; Combination: 10 mg/kg s.c. + 5 Gy irradiation, 21 days): 539 mm^3
- tumor volume ([5]; Combination: 10 mg/kg s.c. + 5 Gy irradiation, 24 days): 710 mm^3
- tumor volume ([5]; Combination: 10 mg/kg s.c. + 5 Gy irradiation, 26 days): 760 mm^3
- tumor volume ([5]; Combination: 10 mg/kg s.c. + 5 Gy irradiation, 29 days): 862 mm^3
- tumor volume ([5]; Combination: 10 mg/kg s.c. + 5 Gy irradiation, 33 days): 950 mm^3
- tumor volume ([5]; Combination: 10 mg/kg s.c. + 5 Gy irradiation, 36 days): 1,086 mm^3
- tumor volume ([5]; Combination: 10 mg/kg s.c. + 5 Gy irradiation, 39 days): 1,079 mm^3
- tumor volume ([5]; Combination: 10 mg/kg s.c. + 5 Gy irradiation, 42 days): 1,164 mm^3
- increase rate of the tumor volume ([5]; Group 2 (compound only, 10 mg/kg) vs Group 1 (control)): much lower than in Group 1
- increase in tumor volume ([5]; Group 4 (compound + 5 Gy irradiation) compared to Group 3 (irradiation only)): little increase in tumor volume
- tumor volume ([5]; compound only, 10 mg/kg s.c., 10 days): 179 mm^3
- tumor volume ([5]; compound only, 10 mg/kg s.c., 13 days): 258 mm^3
- tumor volume ([5]; compound only, 10 mg/kg s.c., 18 days): 614 mm^3
- tumor volume ([5]; compound only, 10 mg/kg s.c., 21 days): 923 mm^3
- tumor volume ([5]; compound only, 10 mg/kg s.c., 24 days): 1,274 mm^3
- tumor volume ([5]; compound only, 10 mg/kg s.c., 26 days): 1,766 mm^3
- tumor volume ([5]; compound only, 10 mg/kg s.c., 29 days): 2,211 mm^3
- tumor volume ([5]; compound only, 10 mg/kg s.c., 33 days): 2,759 mm^3
- tumor volume ([5]; compound only, 10 mg/kg s.c., 36 days): 3,374 mm^3
- tumor volume ([5]; compound only, 10 mg/kg s.c., 39 days): 3,787 mm^3
- tumor volume ([5]; compound only, 10 mg/kg s.c., 42 days): 4,133 mm^3
